Reference: patent US9102688B2, “Sulfonaminoquinoline hepcidin antagonists” (Vifor (International) AG, priority 2011, dated 2015)

The compounds below were run against T1, human ferroportin (Homo sapiens, UniProt Q9NP59) (assay: ferroportin internalization assay (inhibition of hepcidin-induced internalization of Fpn)). Conditions: MDCK-FPN-HaloTag cells, 100 nM hepcidin, overnight incubation; concentration range from 0.04 to 40 μM.
T1 construct: expressed in transfected cells
T1 sequence (Q9NP59 1-571): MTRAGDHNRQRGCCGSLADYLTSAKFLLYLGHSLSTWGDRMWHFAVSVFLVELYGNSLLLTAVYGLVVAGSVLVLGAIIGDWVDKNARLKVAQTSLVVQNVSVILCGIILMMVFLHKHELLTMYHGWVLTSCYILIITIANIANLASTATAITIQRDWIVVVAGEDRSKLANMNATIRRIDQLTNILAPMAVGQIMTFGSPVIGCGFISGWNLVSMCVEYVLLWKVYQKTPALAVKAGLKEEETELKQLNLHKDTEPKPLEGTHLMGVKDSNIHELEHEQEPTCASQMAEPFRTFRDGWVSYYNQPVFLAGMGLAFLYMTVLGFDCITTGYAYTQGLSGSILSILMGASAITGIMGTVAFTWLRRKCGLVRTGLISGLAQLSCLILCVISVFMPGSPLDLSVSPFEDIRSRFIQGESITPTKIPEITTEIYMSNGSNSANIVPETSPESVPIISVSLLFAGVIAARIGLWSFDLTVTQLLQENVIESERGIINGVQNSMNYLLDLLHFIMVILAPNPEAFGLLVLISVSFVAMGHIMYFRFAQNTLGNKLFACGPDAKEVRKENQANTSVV
Type: cell-based
Description: The hepcidin-antagonistic action of the sulfonaminoquinoline compounds of the present invention was determined by means of the “ferroportin internalization assay” described in the following.
Organic compounds of low molecular weight which counteract the biological actions of hepcidin on its receptor, the iron exporter ferroportin (Fpn), were identified on the basis of their ability to inhibit hepcidin-induced internalization of Fpn in living cells. For this purpose, a stable cell line (Madin-Darby canine kidney, MDCK) was produced which constitutively expresses human ferroportin fused recombinantly at its C terminus with a fluorescent reporter protein (HaloTag®, Promega Corp.). The internalization of Fpn was monitored by labelling these cells with fluorescent ligands (HaloTag®-TMR, tetramethylrhodamine) which join covalently on to the HaloTag reporter gene fused with the Fpn. […] Optimized image analysis algorithms were used to ascertain the cell surface and to quantify the corresponding membrane fluorescence associated with the Fpn-HaloTag fusion protein. This assay allows a quantitative image-based analysis in order to quickly evaluate compounds which can block hepcidin-induced internalization of Fpn. This assay is a direct in vitro pendant of the in vivo action mechanism proposed for medicament candidates and is therefore suitable as an initial assay with a high throughput for identifying compounds which counteract the action of hepcidin on its receptor ferroportin.
• 7,500 cells per well (MDCK-FPN-HaloTag) were transinoculated in 50 μl of DMEM medium (Dulbeccos Modified Eagle Medium with 10% foetal bovine serum (FBS), which contained 1% penicillin, 1% streptomycin and 450 μg/ml of G-418) in microtitre plates with 384 wells (384 Cell carrier plates, Perkin Elmer, cat. no. 6007430), followed by incubation overnight at 37° C./5% CO2. • The volume of the medium was reduced to 10 μl, and 10 μl of 5 μM HaloTag-TMR ligands (Promega, cat. no. G 8251) were added in DMEM medium in order to stain the Fpn-HaloTag fusion protein. • 15 min incubation at 37° C./5% CO2 • The HaloTag-TMR ligand was removed and the cells were washed with fresh DMEM medium and the volume was reduced to 20 μl of DMEM medium. • 3 μl per well of a solution of the test compound (dissolved DMSO) were added ([…]). • 7 μl of […] hepcidin (Peptides International, cat. no. PLP-4392-s, 100 μM stock solution diluted in water in DMEM medium) were added per well up to a final hepcidin concentration of 100 nM. • The cells were incubated overnight at 37° C./5% CO2. • The cells were fixed by adding paraformaldehyde (PFA, Electron Microscopy Sciences, cat. no. 15710-S) directly to the cells up to a final concentration of 4%, followed by incubation at room temperature for 15-20 minutes. • The PFA solution was removed and the cells were washed with PBS (phosphate-buffered saline solution), in each case 30 μl remaining in the plate. • 20 μl of Draq5 (Biostatus, cat. no. DR 51000) were added up to a final concentration of 2.5 μM in order to stain the cell nuclei, and the plates were sealed with a foil plate seal. • The plates were analysed with the Opera Plate Imager (Opera Confocal Plate Imager, Perkin Elmer) with 7 images per well; 440 ms exposure time per image, […] focal point height.

In order of rising IC50:
1. CC(=O)c1cc2c(c3ncccc13)NS(=O)(=O)N(C)C2c1ccc(F)cc1 (stereo not drawn) [Example 402, 1-[1-(4-Fluoro-phenyl)-2-methyl-3,3-dioxo-1,2,3,4-tetrahydro-3λ*6*-thia-2,4,5-triaza-phenanthren-9-yl]-ethanone]  250 nM
2. Cc1ccc(S(=O)(=O)Nc2cccc3cccnc23)c(N)c1 [Example 14, 2-Amino-4-methyl-N-quinolin-8-yl-benzenesulfonamide]  300 nM
3. CN1C(c2cccc(F)c2)c2ccc3cccnc3c2NS1(=O)=O (stereo not drawn) [Example 389, 1-(3-Fluoro-phenyl)-2-methyl-1,4-dihydro-2H-3-thia-2,4,5-triaza-phenanthrene 3,3-dioxide]  720 nM
4. CN1C(c2ccccc2)c2ccc3cccnc3c2NS1(=O)=O (stereo not drawn) [Example 115, 2-Methyl-1-phenyl-1,4-dihydro-2H-3-thia-2,4,5-triaza-phenanthrene 3,3-dioxide]  870 nM
5. O=S(=O)(Nc1cccc2cccnc12)c1ccc(Cl)cc1F [Example 42, 4-Chloro-2-fluoro-N-quinolin-8-yl-benzenesulfonamide]  873 nM
6. O=[N+]([O-])c1cc(F)ccc1S(=O)(=O)Nc1cccc2cccnc12 [Example 30, 4-Fluoro-2-nitro-N-quinolin-8-yl-benzenesulfonamide]  920 nM
7. COc1cc2c(c3ncccc13)NS(=O)(=O)c1ccc(C(F)(F)F)cc1-2 [Example 589, 12-Methoxy-9-trifluoromethyl-5H-6-thia-4,5-diaza-chrysene 6,6-dioxide]  960 nM
8. O=S(=O)(Nc1ccc(F)c2cccnc12)c1ccccc1 [Example 98, N-(5-Fluoro-quinolin-8-yl)-benzenesulfonamide]  988 nM
9. COc1cc2c(c3ncccc13)NS(=O)(=O)c1ccccc1-2 [Example 108, 12-Methoxy-5H-6-thia-4,5-diaza-chrysene 6,6-dioxide]  990 nM
10. O=S(=O)(Nc1cccc2cccnc12)c1ccc(C(F)(F)F)cc1 [Example 17, N-Quinolin-8-yl-4-trifluoromethyl-benzenesulfonamide]  1000 nM
11. O=S(=O)(Nc1ccc(C(F)(F)F)c2cccnc12)c1ccccc1 [Example 91, N-(5-Trifluoromethyl-quinolin-8-yl)-benzenesulfonamide]  1050 nM
12. COc1ccc(C2c3ccc4cccnc4c3NS(=O)(=O)N2C)c(OC)c1 (stereo not drawn) [Example 394, 1-(2,4-Dimethoxy-phenyl)-2-methyl-1,4-dihydro-2H-3-thia-2,4,5-triaza-phenanthrene 3,3-dioxide]  1070 nM
13. Cc1cnc2c(NS(=O)(=O)c3ccc(Cl)cc3F)cccc2c1 [Example 71, 4-Chloro-2-fluoro-N-(3-methyl-quinolin-8-yl)-benzenesulfonamide]  1300 nM
14. Cc1cnc2c(NS(=O)(=O)c3cccnc3)cccc2c1 [Example 72, Pyridine-3-sulfonic acid (3-methyl-quinolin-8-yl)-amide]  1390 nM
15. COC(=O)c1cccc(S(=O)(=O)Nc2cccc3cccnc23)c1 [Example 40, 3-(Quinolin-8-ylsulfamoyl)-benzoic acid methyl ester]  1420 nM
16. COc1ccc(S(=O)(=O)Nc2cccc3cccnc23)c([N+](=O)[O-])c1 [Example 34, 4-Methoxy-2-nitro-N-quinolin-8-yl-benzenesulfonamide]  1810 nM
17. CCN(CC)c1ccc2c(c1)-c1cc(Cl)c3cccnc3c1NS2(=O)=O [Example 505, (12-Chloro-6,6-dioxo-5,6-dihydro-6λ*6*-thia-4,5-diaza-chrysen-9-yl)-diethyl-amine]  2190 nM
18. COc1ccc(C2c3ccc4cccnc4c3NS(=O)(=O)N2C)cc1 (stereo not drawn) [Example 390, 1-(4-Methoxy-phenyl)-2-methyl-1,4-dihydro-2H-3-thia-2,4,5-triaza-phenanthrene 3,3-dioxide]  2240 nM
19. CC(O)c1cc2c(c3ncccc13)NS(=O)(=O)N(C)C2c1ccc(F)cc1 (stereo not drawn) [Example 403, 1-[1-(4-Fluoro-phenyl)-2-methyl-3,3-dioxo-1,2,3,4-tetrahydro-3λ*6*-thia-2,4,5-triaza-phenanthren-9-yl]-ethanol]  2370 nM
20. CN(C)CCOc1cc2c(c3ncccc13)NS(=O)(=O)c1ccccc1-2 [Example 562, [2-(6,6-Dioxo-5,6-dihydro-6λ*6*-thia-4,5-diaza-chrysen-12-yloxy)-ethyl]-dimethyl-amine]  2760 nM
21. O=S(=O)(Nc1cccc2cccnc12)c1cccnc1 [Example 33, Pyridine-3-sulfonic acid quinolin-8-ylamide]  3640 nM
22. O=S(=O)(Nc1cc(OC(F)(F)F)cc2cccnc12)c1cccnc1 [Example 237, Pyridine-3-sulfonic acid (6-trifluoromethoxy-quinolin-8-yl)-amide]  3840 nM
23. COCCNC(=O)c1ccc2c(c1)-c1cc(Cl)c3cccnc3c1NS2(=O)=O [Example 528, 12-Chloro-6,6-dioxo-5,6-dihydro-6λ*6*-thia-4,5-diaza-chrysene-9-carboxylic acid (2-methoxy-ethyl)-amide]  3900 nM
24. Cc1cc2c(cc1C)S(=O)(=O)Nc1c-2ccc2cccnc12 [Example 104, 8,9-Dimethyl-5H-6-thia-4,5-diaza-chrysene 6,6-dioxide]  4020 nM
25. N#Cc1ccc(S(=O)(=O)Nc2cccc3cccnc23)cn1 [Example 116, 6-Cyano-pyridine-3-sulfonic acid quinolin-8-ylamide]  4260 nM
26. O=S(=O)(Nc1cc(F)cc2cccnc12)c1cccnc1 [Example 96, Pyridine-3-sulfonic acid (6-fluoro-quinolin-8-yl)-amide]  5870 nM
27. O=S1(=O)Nc2c(cc(C(F)(F)F)c3cccnc23)-c2cc(Cl)ccc21 [Example 312, 9-Chloro-12-trifluoromethyl-5H-6-thia-4,5-diaza-chrysene 6,6-dioxide]  8510 nM
28. CC(C)C(=O)Nc1cc(C(F)(F)F)ccc1S(=O)(=O)Nc1cccc2cccnc12 [Example 61, N-[2-(Quinolin-8-ylsulfamoyl)-5-trifluoromethyl-phenyl]-isobutyramide]  10000 nM
29. CN1C(c2ccc(F)cc2)c2cc(Cl)c3cccnc3c2NS1(=O)=O (stereo not drawn) [Example 401, 9-Chloro-1-(4-fluoro-phenyl)-2-methyl-1,4-dihydro-2H-3-thia-2,4,5-triaza-phenanthrene 3,3-dioxide]  12500 nM
30. CNC(=O)c1ccc2c(c1)-c1ccc3cccnc3c1NS2(=O)=O [Example 522, 6,6-Dioxo-5,6-dihydro-6λ*6*-thia-4,5-diaza-chrysene-9-carboxylic acid methylamide]  13200 nM
31. O=S1(=O)Nc2c(cc(Cl)c3cccnc23)-c2cc(NC(CO)CO)ccc21 [Example 512, 2-(12-Chloro-6,6-dioxo-5,6-dihydro-6λ*6*-thia-4,5-diaza-chrysen-9-ylamino)-propane-1,3-diol]  13400 nM
32. O=S1(=O)Nc2c(cc(C(F)(F)F)c3cccnc23)-c2ccccc21 [Example 311, 12-Trifluoromethyl-5H-6-thia-4,5-diaza-chrysene 6,6-dioxide]  14100 nM
33. Cc1ccc(S(=O)(=O)Nc2c(Cl)cc(Cl)c3cccnc23)cc1 [Example 51, N-(5,7-Dichloro-quinolin-8-yl)-4-methyl-benzenesulfonamide]  79000 nM
